# Experimental data reported in patent US12084472B2 (Ardelyx, Inc., priority 2015, dated 2024).
# Target: T1, human TGR5 (Homo sapiens, UniProt Q8TDU6)
# T1 construct: expressed in transfected cells; host or cells: HEK293
# T1 sequence (Q8TDU6 1-330): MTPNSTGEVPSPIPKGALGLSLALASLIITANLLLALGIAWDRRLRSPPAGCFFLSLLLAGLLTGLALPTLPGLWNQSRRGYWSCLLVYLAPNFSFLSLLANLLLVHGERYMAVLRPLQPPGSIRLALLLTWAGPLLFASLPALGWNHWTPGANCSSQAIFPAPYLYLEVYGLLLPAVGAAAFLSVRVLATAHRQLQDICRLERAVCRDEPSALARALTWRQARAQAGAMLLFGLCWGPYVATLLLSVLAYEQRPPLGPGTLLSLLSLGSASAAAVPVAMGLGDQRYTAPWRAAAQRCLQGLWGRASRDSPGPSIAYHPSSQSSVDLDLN
# Assay: Cell-based TGR5 assay (cAMP generation, HTRF)
# Details: HEK293 cells stably transfected with human TGR5; cAMP by HTRF; 30 minutes at 37° C.; read-out: pEC50 Human TGR5 (converted)
# Outline: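 Read-out was HTRF detection of cAMP, converted to concentration via a standard curve and fitted (3-parameter logistic) for pEC50 and maximal response. Agonist stimulation used HEK293 cells stably transfected with human TGR5, incubated 30 min at 37° C in IBMX-containing buffer at 0.05 nM to 10 μM compound.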
row,SMILES,EC50
1,"CC(CCCC(=O)N(CCC(=O)N(C)C)C[C@H](O)[C@@H](O)[C@H](O)[C@H](O)CO)c1ccc(Cl)c(CNC2(c3cnccc3-c3ccccc3OC3CC3)CC2)c1 (stereo partly drawn) [Compound I-345, 5-{4-chloro-3-[({1-[4-(2-cyclopropoxyphenyl)pyridin-3-yl]cyclopropyl}amino)methyl]phenyl}-N-[2-(dimethylcarbamoyl)ethyl]-N-[(2S,3R,4R,5R)-2,3,4,5,6-pentahydroxyhexyl]hexanamide]",126 to 1000 nM
2,"O=C(NC[C@H](O)[C@@H](O)[C@H](O)[C@H](O)CO)[C@H]1CC[C@H](NS(=O)(=O)c2ccc(Cl)c(COC3(c4cnccc4-c4ccccc4OC4CC4)CC3)c2)CC1 [Compound I-442, (1r,4r)-4-[4-chloro-3-({1-[4-(2-cyclopropoxyphenyl)pyridin-3-yl]cyclopropoxy}methyl)benzenesulfonamido]-N-[(2S,3R,4R,5R)-2,3,4,5,6-pentahydroxyhexyl]cyclohexane-1-carboxamide]",< 100 nM
3,"CN(C[C@H](O)[C@@H](O)[C@H](O)[C@H](O)CO)C(=O)NCCCCCc1cc(Cl)c(CNC2(c3cnccc3-c3ccccc3OC3CC3)CC2)cc1Cl (stereo in doubt) [Compound I-163, 1-(5-{2,5-dichloro-4-[({1-[4-(2-cyclopropoxyphenyl)pyridin-3-yl]cyclopropyl}amino)methyl]phenyl}pentyl)-3-methyl-3-[(2S,3R,4R,5R)-2,3,4,5,6-pentahydroxyhexyl]urea]",< 100 nM
4,"CCNC(=O)[C@H](N)CCCCNS(=O)(=O)c1ccc(Cl)c(COC2(c3cnccc3-c3ccccc3OC3CC3)CC2)c1 [Compound I-481, (2R)-2-amino-6-[4-chloro-3-({1-[4-(2-cyclopropoxyphenyl)pyridin-3-yl]cyclopropoxy}methyl)benzenesulfonamido]-N-ethylhexanamide]",< 100 nM

# Other lines, results leading:
row,EC50,SMILES
1,126 to 1000 nM,"CC(C)(CC(=O)O)CC(=O)N(CCCCc1cc(Cl)c(COC2(c3cnccc3-c3ccccc3OC3CC3)CC2)cc1Cl)C[C@H](O)[C@@H](O)[C@H](O)[C@H](O)CO [Compound I-196, 4-({4-[2,5-dichloro-4-({1-[4-(2-cyclopropoxyphenyl)pyridin-3-yl]cyclopropoxy}methyl)phenyl]butyl}[(2S,3R,4R,5R)-2,3,4,5,6-pentahydroxyhexyl]carbamoyl)-3,3-dimethylbutanoic acid]"
2,< 100 nM,"Cc1cc(COC2(c3cnccc3-c3ccccc3OC3CC3)CC2)c(Cl)cc1CCCCC(=O)NC[C@H](O)[C@@H](O)[C@H](O)[C@H](O)CO [Compound I-145, 5-[5-chloro-4-({1-[4-(2-cyclopropoxyphenyl)pyridin-3-yl]cyclopropoxy}methyl)-2-methylphenyl]-N-[(2S,3R,4R,5R)-2,3,4,5,6-pentahydroxyhexyl]pentanamide]"
3,126 to 1000 nM,"CC(C)(CO)CN(C[C@@H](O)[C@H](O)[C@@H](O)[C@@H](O)CO)C(=O)CCCSc1ccc(Cl)c(COC2(c3cnccc3-c3ccccc3OC3CC3)CC2)c1 [Compound I-687, 4-{[4-chloro-3-({1-[4-(2-cyclopropoxyphenyl)pyridin-3-yl]cyclopropoxy}methyl)phenyl]sulfanyl}-N-(3-hydroxy-2,2-dimethylpropyl)-N-[(2R,3S,4S,5S)-2,3,4,5,6-pentahydroxyhexyl]butanamide]"
4,< 100 nM,"O=C([C@@H](O)[C@@H](O)[C@H](O)[C@@H](O)CO)N(CCCCO)CCCCCSc1ccc(Cl)c(CNC2(c3cnccc3-c3ccccc3OC3CC3)CC2)c1 [Compound I-600, (2S,3S,4R,5S)-N-[5-({4-chloro-3-[({1-[4-(2-cyclopropoxyphenyl)pyridin-3-yl]cyclopropyl}amino)methyl]phenyl}sulfanyl)pentyl]-2,3,4,5,6-pentahydroxy-N-(4-hydroxybutyl)hexanamide]"
5,< 100 nM,"CC(=O)NCCCN(CCCCSc1ccc(Cl)c(COC2(c3cnccc3-c3ccccc3OC3CC3)CC2)c1)C(=O)[C@@H](O)[C@@H](O)[C@H](O)[C@@H](O)CO [Compound I-566, (2S,3S,4R,5S)-N-(4-{[4-chloro-3-({1-[4-(2-cyclopropoxyphenyl)pyridin-3-yl]cyclopropoxy}methyl)phenyl]sulfanyl}butyl)-N-(3-acetamidopropyl)-2,3,4,5,6-pentahydroxyhexanamide]"
